Data on one compound can be found in patent US11378572B2, “Therapeutic agent for immune cell migration-caused disease and method for screening same” (ZYMEDI CO., LTD., priority 2017, dated 2022).

For data set [1], the system named is liver ischemia-reperfusion injury model. Kind of data set: Liver ischemia-reperfusion injury model. To be noted: 100 mg/kg oral once daily, 3 days; 24 hours of reperfusion. Type of data set: in vivo, CX3CR1-GFP mice. The protocol:
A liver ischemia-reperfusion injury model was prepared using CX3CR1-GFP mice to investigate the effect of inhibitors of KRS translocation to the plasma membrane on the monocyte infiltration during ischemic immune responses. Monocytes, macrophages and Kupffer's cells appear green in CX3CR1-GFP mice. Mice were orally administered with vehicle or BC-KI-00053 (100 mg/kg, dissolved in vehicle, once daily) for a total of three days beginning two days before imaging (D-2, D-1, D-0). For vehicle, corn oil:polyethylene glycol 400: Tween 80: methyl cellulose (1%)=20:30:1:49 was used. On day 3 of oral administration (D-0), triad (bile duct, hepatic artery, […]) occlusion was performed using a 6-0 suture as shown in FIG. 8a. Triad occlusion was performed for 30 minutes to induce acute inflammation, and 3 g of Eppendorf tubes were suspended from both ends of the suture. Suture was removed and the ischemic inflammation site was observed immediately after reperfusion (0 hour) and 24 hours later. At this time, blood vessels were labeled with Alexa Flour 555-bound anti-CD31 antibody for repeated imaging (identifiable as red). Two-photon microscope was used as an imaging equipment.

For data set [2], the system named is Dahl salt-sensitive (SS) rats. Kind of data set: Dahl salt-sensitive (SS) rat on high salt diet. Format: in vivo. The procedure: Experiments were performed using male Dahl SS rats at 9-12 weeks of age. These animals were provided by the University of Mississippi Medical Center and approved by the American Association for Accreditation of Laboratory Animal Care (AAALAC). All protocols were approved by the Institutional Animal Care and Use Committee of the University of Mississippi Medical Center. Rats were fed ad libitum, and these rats were provided with a purified AIN-76 rodent feed containing 0.4% NaCl (Dyets, Bethlehem, Pa.) after weaning. Dahl salt-sensitive (SS) rat is an animal model that rapidly develops high hypertension, proteinuria, glomerulosclerosis and renal interstitial fibrosis on high salt (HS) diet.
Dahl SS rats were anesthetized with isoflurane and telemetry transmitters (model TA11PAC40, Data Sciences International, St. Paul, Minn.) were aseptically implanted in the same manner as described above. After surgery, rats were housed in individual cages in a quiet air-conditioned room environment with a 12:12 hour light-dark cycle and it took a week to fully recover from surgery. Then, the baseline mean arterial blood pressure (MAP) was measured before the rats were placed in the metabolic cage to measure urine protein excretion. Proteinuria was measured using the Bradford method and BSA (Bio-Rad Laboratories, Hercules, Calif.) as a standard.
Rats were then randomly divided into two experimental groups: Group 1 (n=15) was treated with BC-KI-00053 (25 mg/kg daily) by gastrointestinal gavage; Group 2 (n=15) was administered by gastrointestinal gavage with the same volume (2.5 ml/kg per day) of vehicle (corn oil, polyethylene glycol 400, Tween 80 and methyl cellulose). Simultaneously with the administration of agents, feed was changed to HS feed containing 8% NaCl (Dyets, Bethlehem, Pa.) and blood pressure and proteinuria were measured at 7, 14 and 21 days after starting HS feed. At the end of the experiment, rats were anesthetized with isoflurane and blood samples were taken to measure creatinine levels. Rats were then flushed with 50 ml of 0.9% NaCl through the aorta and perfused with 20 ml of 4% paraformaldehyde. Kidneys and hearts were collected for histological evaluation.
Paraffin section preparation and evaluations of the degree of glomerular damage, cortex and medulla fibrosis were performed as described above. In addition, immunohistochemical staining (IHC) for CD68, a monocyte/macrophage marker for kidney tissue, was performed in the same manner as in Example 8.
Statistics: Each data is expressed as mean±SEM. Comparison between groups was analyzed by two-tailed test. P value p<0.05 was considered statistically significant.

Data set [3] concerns ear skin wound model. Put plainly: Ear skin wound model (acute inflammatory response). Type of data set: in vivo, CX3CR1-GFP mouse. The note with it: 100 mg/kg oral once daily, 4 days. The procedure: To investigate the effect of the inhibitor of KRS translocation to the plasma membranes during monocyte infiltration in acute inflammatory responses, an ear skin wound model using CX3CR1-GFP mouse (Stock no. #005582, Jackson Laboratory, Bar Harbor, USA) was prepared. Monocytes, macrophages and Langerhans cells appear green in CX3R1-GFP mice. Mice were administered orally with vehicle or BC-KI-00053 (100 mg/kg, dissolved in vehicle, once daily) for a total of 4 days from 2 days prior to imaging (D−2, D−1, D−0, D+1). For a vehicle, corn oil:polyethylene glycol 400:Tween 80:methyl cellulose (1%)=20:30:1:49 was used. A 31G syringe was used to puncture the skin of the ear (time D−0) to induce acute inflammatory responses. Blood vessels were labeled using anti-CD31 antibody bound to Alexa Flour 555 (identifiable as red). Confocal microscopy was used as an imaging equipment.

Each structure is given as a SMILES string.

Regarding `COc1ccc(CCN(Cc2ccc(C(=O)O)cc2)c2nc3cccc(F)c3s2)cc1` [BC-KI-00053, 4-({(7-fluorobenzo[d]thiazol-2-yl)[2-(4-methoxyphenyl)ethyl]amino}methyl)benzoic acid], in data set [1], the “monocyte/macrophage infiltration into occluded liver area” value is on record as “significantly reduced”. Moreover, the cortical fibrosis in data set [2] (25 mg/kg daily 3 weeks) is reported as 6.47±0.46%. In addition, the renal medulla fibrosis in data set [2] (25 mg/kg daily 3 weeks) is listed as 12.33±0.78%. Also, in data set [2] (25 mg/kg daily 3 weeks), the “renal tissue infiltration of monocytes/macrophages (CD68 IHC)” value is listed as “significantly reduced”. Also, the cardiac fibrosis in data set [2] (25 mg/kg daily 3 weeks, Sirius red) was determined as 6.63±0.94%. Moreover, in data set [2] (25 mg/kg daily 3 weeks, score 0 to 4+), the “mean glomerular injury score” value came out at 1.34±0.04. For the same compound, the “body weight during the study period” value in data set [2] (25 mg/kg daily gavage, 3 weeks) was “maintained or increased slightly”. Moreover, the MAP was determined as 164.43±3.00 mmHg in data set [2] (25 mg/kg daily, after 2 weeks of treatment, HS diet); 178.48±3.49 mmHg in data set [2] (25 mg/kg daily, study completed (21 days), HS diet); 123.45±2.36 mmHg in data set [2] (baseline, before treatment). For the same compound, the proteinuria in data set [2] (25 mg/kg daily, after one week of treatment, HS diet) came to 302.86 ± 29.76 mg/day; in data set [2] (25 mg/kg daily, after two weeks of treatment, HS diet) it was 510.64 ± 42.42 mg/day; in data set [2] (25 mg/kg daily, end of study, HS diet), 524.55 ± 44.70 mg/day; in data set [2] (baseline, before treatment) it was 113.27 ± 8.06 mg/day. In addition, the plasma creatinine concentration in data set [2] (25 mg/kg daily, end of experiment) came to 0.55 ± 0.01 mg/dL. The baseline body weight in data set [2] (baseline, before treatment, mean±SEM) came to 350.13 ± 9.173 g. For the same compound, in data set [3], the “infiltration of monocytes and macrophages around skin wound” value is listed as “significantly reduced”.
